Experimental data: patent publication US8969325B2, “TRPV1 antagonists” (AbbVie Inc., priority 2011, dated 2015)

Key:
human TRPV1 [1] = target: T1, human TRPV1 (Homo sapiens (Human), UniProt Q8NER1); experiment: Capsaicin Activation Assay (intracellular Ca2+, FLIPR); format: cell-based; details: recombinant HEK293 cells expressing hTRPV1, 50 nM capsaicin
How it was run: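 Ca2+ fluorescence was recorded by FLIPR every 1 to 5 seconds in HEK293 cells, clonally selected for stable human TRPV1 expression and plated one day ahead. Test compounds came as serial dilutions of 10 mM DMSO stocks.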

human TRPV1 [2] = target: T1, human TRPV1; experiment: Acid Activation Assay (pH 5.0, intracellular Ca2+, FLIPR); format: cell-based; details: percentage of the maximal pH 5.0-induced response remaining; recombinant HEK293 hTRPV1 cells; maximum concentration tested 37.5 μM
How it was run: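 Readout: peak [Ca2+]i fluorescence over baseline on FLIPR, expressed as percentage remaining of the maximal pH 5.0-evoked signal. Stable hTRPV1-HEK293 cells with Calcium-4 dye received compound (12 half-log concentrations, maximum 37.5 μM) 3 min before acidic pH 5.0 buffer.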

T1 sequence (Q8NER1 whole entry): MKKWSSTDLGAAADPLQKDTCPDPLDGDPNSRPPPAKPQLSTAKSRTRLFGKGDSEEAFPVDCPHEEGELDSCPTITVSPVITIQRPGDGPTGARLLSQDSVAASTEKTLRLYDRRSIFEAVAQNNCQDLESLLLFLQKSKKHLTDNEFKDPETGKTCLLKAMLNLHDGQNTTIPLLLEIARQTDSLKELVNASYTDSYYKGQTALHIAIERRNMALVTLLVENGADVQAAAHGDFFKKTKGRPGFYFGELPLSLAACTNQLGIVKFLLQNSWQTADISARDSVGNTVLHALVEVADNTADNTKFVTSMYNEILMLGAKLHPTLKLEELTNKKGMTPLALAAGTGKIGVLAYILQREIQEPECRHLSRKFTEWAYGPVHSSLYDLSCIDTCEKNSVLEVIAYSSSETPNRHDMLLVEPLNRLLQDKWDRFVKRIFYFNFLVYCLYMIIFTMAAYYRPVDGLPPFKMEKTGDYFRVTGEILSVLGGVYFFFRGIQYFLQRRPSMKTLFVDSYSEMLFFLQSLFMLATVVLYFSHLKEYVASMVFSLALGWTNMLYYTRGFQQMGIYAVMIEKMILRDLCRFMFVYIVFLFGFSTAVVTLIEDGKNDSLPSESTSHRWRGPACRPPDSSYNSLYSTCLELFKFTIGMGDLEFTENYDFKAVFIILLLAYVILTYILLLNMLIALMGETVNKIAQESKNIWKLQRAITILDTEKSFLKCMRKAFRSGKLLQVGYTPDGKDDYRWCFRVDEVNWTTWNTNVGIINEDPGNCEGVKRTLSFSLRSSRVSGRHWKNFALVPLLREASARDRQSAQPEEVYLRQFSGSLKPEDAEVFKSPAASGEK

Row | SMILES | IC50 (human TRPV1 [1]) [nM] | human TRPV1 H^+ (max % remain) (human TRPV1 [2]) [%]
1 | CN1C(=O)CCc2ccc(NC(=O)N[C@@H]3CC(CF)(CF)Oc4cc(F)ccc43)cc21 [Example 296, 1-[(4R)-7-fluoro-2,2-bis(fluoromethyl)-3,4-dihydro-2H-chromen-4-yl]-3-(1-methyl-2-oxo-1,2,3,4-tetrahydroquinolin-7-yl)urea] | 130 | 68
2 | CN1C(=O)CCc2ccc(NC(=O)N[C@@H]3CC(C)(C)Oc4cc(Br)ccc43)cc21 [Example 297, 1-[(4R)-7-bromo-2,2-dimethyl-3,4-dihydro-2H-chromen-4-yl]-3-(1-methyl-2-oxo-1,2,3,4-tetrahydroquinolin-7-yl)urea] | 130 | 67
3 | CN1C(=O)CCc2ccc(NC(=O)N[C@@H]3C[C@@](C)(C(F)(F)F)Oc4ccccc43)cc21 [Example 298, 1-(1-methyl-2-oxo-1,2,3,4-tetrahydroquinolin-7-yl)-3-[(2S,4R)-2-methyl-2-(trifluoromethyl)-3,4-dihydro-2H-chromen-4-yl]urea] | 67 | 69
4 | CN1C(=O)CCc2ccc(NC(=O)N[C@@H]3CC(C)(C)Oc4c3ccc(F)c4F)cc21 [Example 299, 1-[(4R)-7,8-difluoro-2,2-dimethyl-3,4-dihydro-2H-chromen-4-yl]-3-(1-methyl-2-oxo-1,2,3,4-tetrahydroquinolin-7-yl)urea] | 54 | 84
5 | O=C(Nc1ccc2c(c1)NC(=O)C(N1CCOCC1)C2)N[C@@H]1CC(CF)(CF)Oc2cc(Cl)ccc21 (stereo partly drawn) [Example 300, 1-[(4R)-7-chloro-2,2-bis(fluoromethyl)-3,4-dihydro-2H-chromen-4-yl]-3-[3-(morpholin-4-yl)-2-oxo-1,2,3,4-tetrahydroquinolin-7-yl]urea] | 62 | 75
6 | O=C(Nc1ccc2c(c1)NC(=O)C(N1CCCOCC1)C2)N[C@@H]1CC(CF)(CF)Oc2cc(Cl)ccc21 (stereo partly drawn) [Example 302, 1-[(4R)-7-chloro-2,2-bis(fluoromethyl)-3,4-dihydro-2H-chromen-4-yl]-3-[3-(1,4-oxazepan-4-yl)-2-oxo-1,2,3,4-tetrahydroquinolin-7-yl]urea] | 200 | 36
7 | CN(CCO)C1Cc2ccc(NC(=O)N[C@@H]3CC(CF)(CF)Oc4cc(Cl)ccc43)cc2NC1=O (stereo partly drawn) [Example 304, 1-[(4R)-7-chloro-2,2-bis(fluoromethyl)-3,4-dihydro-2H-chromen-4-yl]-3-{3-[(2-hydroxyethyl)(methyl)amino]-2-oxo-1,2,3,4-tetrahydroquinolin-7-yl}urea] | 230 | 0
8 | COCCN(C)C1Cc2ccc(NC(=O)N[C@@H]3CC(C)(C)Oc4cc(F)ccc43)cc2NC1=O (stereo partly drawn) [Example 305, 1-[(4R)-7-fluoro-2,2-dimethyl-3,4-dihydro-2H-chromen-4-yl]-3-{3-[(2-methoxyethyl)(methyl)amino]-2-oxo-1,2,3,4-tetrahydroquinolin-7-yl}urea] | 2000 | 26
9 | O=C(Nc1ccc2c(c1)NC(=O)N(CCO)C2)N[C@@H]1CCOc2ccccc21 [Example 308, 1-[(4R)-3,4-dihydro-2H-chromen-4-yl]-3-[3-(2-hydroxyethyl)-2-oxo-1,2,3,4-tetrahydroquinazolin-7-yl]urea] | 68 | 3
10 | O=C(Nc1ccc2c(c1)NC(=O)N(CCO)C2)N[C@@H]1CC(CF)(CF)Oc2cc(C(F)(F)F)ccc21 [Example 309, 1-[(4R)-2,2-bis(fluoromethyl)-7-(trifluoromethyl)-3,4-dihydro-2H-chromen-4-yl]-3-[3-(2-hydroxyethyl)-2-oxo-1,2,3,4-tetrahydroquinazolin-7-yl]urea] | 18000 | 36
11 | CCCC1(CCC)C[C@@H](NC(=O)Nc2ccc3c(c2)NC(=O)N(CCO)C3)c2cccc(F)c2O1 [Example 311, 1-[(4R)-8-fluoro-2,2-dipropyl-3,4-dihydro-2H-chromen-4-yl]-3-[3-(2-hydroxyethyl)-2-oxo-1,2,3,4-tetrahydroquinazolin-7-yl]urea] | 150 | 14
12 | CC1(C)C[C@@H](NC(=O)Nc2ccc3c(c2)NC(=O)N(CCO)C3)c2ccc(Cl)cc2O1 [Example 313, 1-[(4R)-7-chloro-2,2-dimethyl-3,4-dihydro-2H-chromen-4-yl]-3-[3-(2-hydroxyethyl)-2-oxo-1,2,3,4-tetrahydroquinazolin-7-yl]urea] | 76 | 4
13 | O=C(Nc1ccc2c(c1)NC(=O)N(CCO)C2)N[C@@H]1CC(CF)(CF)Oc2ccccc21 [Example 314, 1-[(4R)-2,2-bis(fluoromethyl)-3,4-dihydro-2H-chromen-4-yl]-3-[3-(2-hydroxyethyl)-2-oxo-1,2,3,4-tetrahydroquinazolin-7-yl]urea] | 57 | 0
14 | O=C1CCc2ccc(NC(=O)N[C@@H]3CC(CF)(CF)Oc4cc(C(F)(F)F)ccc43)cc2N1 [Example 320, 1-[(4R)-2,2-bis(fluoromethyl)-7-(trifluoromethyl)-3,4-dihydro-2H-chromen-4-yl]-3-(2-oxo-1,2,3,4-tetrahydroquinolin-7-yl)urea] | 12 | 80

The remaining molecules from weak to strong by IC50 (human TRPV1 [1]), led by results:

Row | IC50 (human TRPV1 [1]) [nM] | human TRPV1 H^+ (max % remain) (human TRPV1 [2]) [%] | SMILES
15 | 5000 | 21 | O=C(Nc1ccc2c(c1)NC(=O)N(CCO)C2)N[C@@H]1CC(CF)(CF)Oc2cc(F)ccc21 [Example 319, 1-[(4R)-7-fluoro-2,2-bis(fluoromethyl)-3,4-dihydro-2H-chromen-4-yl]-3-[3-(2-hydroxyethyl)-2-oxo-1,2,3,4-tetrahydroquinazolin-7-yl]urea]
16 | 1900 | 20 | O=C(Nc1ccc2c(c1)NC(=O)N(CCO)C2)N[C@@H]1CC(CF)(CF)Oc2cc(Cl)ccc21 [Example 316, 1-[(4R)-7-chloro-2,2-bis(fluoromethyl)-3,4-dihydro-2H-chromen-4-yl]-3-[3-(2-hydroxyethyl)-2-oxo-1,2,3,4-tetrahydroquinazolin-7-yl]urea]
17 | 1300 | 60 | CC1(C)C[C@@H](NC(=O)Nc2ccc3c(c2)NC(=O)C(N2CCOCC2)C3)c2ccc(F)cc2O1 (stereo partly drawn) [Example 301, 1-[(4R)-7-fluoro-2,2-dimethyl-3,4-dihydro-2H-chromen-4-yl]-3-[3-(morpholin-4-yl)-2-oxo-1,2,3,4-tetrahydroquinolin-7-yl]urea]
18 | 1300 | 37 | CC1(C)C[C@@H](NC(=O)Nc2ccc3c(c2)NC(=O)N(CCO)C3)c2cccc(C(F)(F)F)c2O1 [Example 307, 1-[(4R)-2,2-dimethyl-8-(trifluoromethyl)-3,4-dihydro-2H-chromen-4-yl]-3-[3-(2-hydroxyethyl)-2-oxo-1,2,3,4-tetrahydroquinazolin-7-yl]urea]
19 | 830 | 18 | O=C(Nc1ccc2c(c1)NC(=O)N(CCO)C2)N[C@@H]1CC(CF)(CF)Oc2c(F)cccc21 [Example 315, 1-[(4R)-8-fluoro-2,2-bis(fluoromethyl)-3,4-dihydro-2H-chromen-4-yl]-3-[3-(2-hydroxyethyl)-2-oxo-1,2,3,4-tetrahydroquinazolin-7-yl]urea]
20 | 610 | 2 | CC1(C)C[C@@H](NC(=O)Nc2ccc3c(c2)NC(=O)C(N2CCCOCC2)C3)c2ccc(F)cc2O1 (stereo partly drawn) [Example 303, 1-[(4R)-7-fluoro-2,2-dimethyl-3,4-dihydro-2H-chromen-4-yl]-3-[3-(1,4-oxazepan-4-yl)-2-oxo-1,2,3,4-tetrahydroquinolin-7-yl]urea]
21 | 600 | 17 | O=C(Nc1ccc2c(c1)NC(=O)N(CCO)C2)N[C@@H]1CC2(CCCC2)Oc2ccccc21 [Example 317, 1-[(4R)-3,4-dihydrospiro[chromene-2,1′-cyclopentan]-4-yl]-3-[3-(2-hydroxyethyl)-2-oxo-1,2,3,4-tetrahydroquinazolin-7-yl]urea]
22 | 590 | 14 | C[C@@]1(C(F)F)C[C@@H](NC(=O)Nc2ccc3c(c2)NC(=O)N(CCO)C3)c2ccccc2O1 [Example 318, 1-[(2S,4R)-2-(difluoromethyl)-2-methyl-3,4-dihydro-2H-chromen-4-yl]-3-[3-(2-hydroxyethyl)-2-oxo-1,2,3,4-tetrahydroquinazolin-7-yl]urea]
23 | 440 | 31 | COCCN(C)C1Cc2ccc(NC(=O)N[C@@H]3CC(CF)(CF)Oc4cc(Cl)ccc43)cc2NC1=O (stereo partly drawn) [Example 306, 1-[(4R)-7-chloro-2,2-bis(fluoromethyl)-3,4-dihydro-2H-chromen-4-yl]-3-{3-[(2-methoxyethyl)(methyl)amino]-2-oxo-1,2,3,4-tetrahydroquinolin-7-yl}urea]
24 | 200 | 36 | CC1(C)C[C@@H](NC(=O)Nc2ccc3c(c2)NC(=O)N(CCO)C3)c2ccc(F)c(Cl)c2O1 [Example 312, 1-[(4R)-8-chloro-7-fluoro-2,2-dimethyl-3,4-dihydro-2H-chromen-4-yl]-3-[3-(2-hydroxyethyl)-2-oxo-1,2,3,4-tetrahydroquinazolin-7-yl]urea]
25 | 190 | 2 | CCCC1(CCC)C[C@@H](NC(=O)Nc2ccc3c(c2)NC(=O)N(CCO)C3)c2cc(F)ccc2O1 [Example 310, 1-[(4R)-6-fluoro-2,2-dipropyl-3,4-dihydro-2H-chromen-4-yl]-3-[3-(2-hydroxyethyl)-2-oxo-1,2,3,4-tetrahydroquinazolin-7-yl]urea]
